Assay results published in US20260069523A1, “SKIN CARE COMPOSITION AND USE THEREOF” (NANJING NUTRABUILDING BIO-TECH CO., LTD., priority 2023, published 2026).

How the values were obtained:
IL-6 = test: Anti-inflammatory test: IL-6 in UVB-stimulated keratinocytes; type: cell-based, human; details: UV-B 50 mJ/cm^2 irradiated keratinocytes, 24 h, supernatant, maximum non-cytotoxic dose (combinations: half dose each)
Protocol: (§1) Cell culture: HaCat, a normal human epidermal keratinocyte (NHEK) cell line, was purchased from Wuhan Saios Biotechnology Co., Ltd. The cells were stored in a humid environment (95% air and 5% carbon dioxide at 37° C.) and cultured in DMEM supplemented with 10% heat inactivated FBS, 2 mM glutamine and 1% penicillin/streptomycin. The culture was harvested and the cell morphology was examined by phase contrast microscope. Cell suspension was counted with a hemocytometer (Marienfeld, Germany) to monitor the number of cells.
(§2) UVB stimulation: Keratinocytes were inoculated into a 12-well plate (50,000 cells/mL) and cultured to a confluency of ˜80%. The cells were washed once with phosphate buffered saline (PBS) at room temperature, 0.5 mL PBS was added to the cells, and then irradiated with ultraviolet rays. The cells were exposed to 50 mJ/cm^2 UV-B (Philips, 311 nm) for 2 minutes. […]
(§3) Detection of inflammatory factors: the standard curve of each cytokine (TNF-α, IL-8, IL-6) were generated by using the reference cytokine samples provided by the kit. […] The absorbance (OD value) was measured by microplate reader at the wavelength of 450 nm, and the concentration was calculated according to the standard curve.

TNF-α = test: Anti-inflammatory test: TNF-α in UVB-stimulated keratinocytes; type: cell-based, human; details: UV-B 50 mJ/cm^2 irradiated keratinocytes, 24 h, supernatant, maximum non-cytotoxic dose (combinations: half dose each)
Protocol: as §1, §2, §3

tyrosinase = test: Whitening test: inhibition of tyrosinase; details: 1 mg/mL sample solutions (combinations mixed 1:1 or 1:1:1), tyrosine substrate, 30° C., absorbance 475 nm
IL-8 = test: Anti-inflammatory test: IL-8 in UVB-stimulated keratinocytes; type: cell-based, human; details: UV-B 50 mJ/cm^2 irradiated keratinocytes, 24 h, supernatant, maximum non-cytotoxic dose (combinations: half dose each)
Protocol: as §1, §2, §3

Row | SMILES | content of IL-6 (IL-6) | content of TNF-α (TNF-α) | inhibition rate on tyrosinase (tyrosinase) | content of IL-8 (IL-8)
1 | C[N+](C)(C)[C@@H](Cc1c[nH]c(=S)[nH]1)C(=O)[O-] [EGT, ergothioneine] | 28 pg/mL | about 95 pg/ml | 68% | 23 pg/mL
2 | COc1cc(CCC(=O)CC(=O)CCc2ccc(O)c(OC)c2)ccc1O [THC, tetrahydrocurcumin] | 27 pg/mL | about 90 pg/ml | – | 25 pg/mL
